These results are taken from the Kinase Knowledgebase extract (Sharma et al. 2016).

pIC50: −log10 of the molar value.

The assay deals with EGFR (human) (UniProt P00533).
EGFR (human), sequence (P00533 whole entry, looked up): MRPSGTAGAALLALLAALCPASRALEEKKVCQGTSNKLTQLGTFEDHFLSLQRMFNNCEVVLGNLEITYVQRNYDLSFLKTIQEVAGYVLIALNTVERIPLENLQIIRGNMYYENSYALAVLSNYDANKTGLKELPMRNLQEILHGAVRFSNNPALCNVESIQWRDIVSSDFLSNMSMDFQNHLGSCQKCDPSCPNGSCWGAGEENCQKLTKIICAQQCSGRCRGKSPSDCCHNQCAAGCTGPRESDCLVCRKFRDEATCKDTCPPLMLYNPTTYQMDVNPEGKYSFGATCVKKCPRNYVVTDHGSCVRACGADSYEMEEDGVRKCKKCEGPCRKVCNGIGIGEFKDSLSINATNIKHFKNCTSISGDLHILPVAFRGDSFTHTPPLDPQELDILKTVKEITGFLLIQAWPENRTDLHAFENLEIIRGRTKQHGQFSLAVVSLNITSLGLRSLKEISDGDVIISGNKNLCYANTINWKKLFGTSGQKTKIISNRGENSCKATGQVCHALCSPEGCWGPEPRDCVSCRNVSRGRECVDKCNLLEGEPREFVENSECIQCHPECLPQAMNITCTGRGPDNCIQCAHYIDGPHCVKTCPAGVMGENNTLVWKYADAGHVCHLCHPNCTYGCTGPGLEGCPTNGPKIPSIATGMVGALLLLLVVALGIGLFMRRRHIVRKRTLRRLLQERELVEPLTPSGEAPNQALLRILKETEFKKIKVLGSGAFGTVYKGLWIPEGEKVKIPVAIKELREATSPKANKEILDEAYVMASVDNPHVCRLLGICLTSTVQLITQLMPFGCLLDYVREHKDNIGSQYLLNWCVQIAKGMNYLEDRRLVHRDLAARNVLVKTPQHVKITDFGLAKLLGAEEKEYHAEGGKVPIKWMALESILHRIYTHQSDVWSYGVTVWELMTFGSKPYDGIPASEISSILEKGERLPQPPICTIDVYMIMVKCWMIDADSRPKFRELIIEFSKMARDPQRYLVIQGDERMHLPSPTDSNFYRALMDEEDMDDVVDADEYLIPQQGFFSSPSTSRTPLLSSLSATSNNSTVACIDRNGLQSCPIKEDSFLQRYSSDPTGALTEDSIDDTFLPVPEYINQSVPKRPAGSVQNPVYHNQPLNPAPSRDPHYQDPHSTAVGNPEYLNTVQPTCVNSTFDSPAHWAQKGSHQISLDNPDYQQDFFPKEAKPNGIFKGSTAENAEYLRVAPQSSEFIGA
In turn, `COc1cc(/C=C(\C#N)C(=O)Nc2ccccc2)cc(Br)c1O` gave a pIC50 of 5.74.
The compound `N#C/C(=C\c1cc(O)c(O)c(C(F)(F)F)c1)C(=O)Nc1cccc(Cl)c1` showed a pIC50 of 5.64.
To `COc1cc(/C=C(\C#N)C(=O)Nc2cccc(Cl)c2)cc(Br)c1O` belongs 5.85.
Consider `N#C/C(=C\c1cc(O)c(O)c(Br)c1)C(=O)Nc1cccc(Cl)c1`, for which the negative logarithm of the IC50 (pIC50) was 6.31.
In turn, `N#C/C(=C\c1cc(O)c(O)cc1[N+](=O)[O-])C(=O)Nc1cccc(Cl)c1` had a pIC50 of 6.55.
`COc1cc(/C=C(\C#N)C(=O)Nc2cccc(Cl)c2)cc(Cl)c1O`: the pIC50 is 6.17.
Consider `N#C/C(=C\c1cc(O)c(O)c(Br)c1Br)C(=O)Nc1cccc(Cl)c1`, for which the negative logarithm of the IC50 (pIC50) is 6.55.
`N#C/C(=C\c1cc(O)c(O)c(C#N)c1)C(=O)Nc1cccc(Cl)c1` showed a pIC50 of 6.00.
In the case of `Cc1cc(/C=C(\C#N)C(=O)Nc2cccc(Cl)c2)cc(O)c1O` it was 5.89; in that of `N#C/C(C(=O)Nc1ccccc1)=C(\O)c1ccc(O)c(O)c1`, 6.02; in that of `N#C/C(=C\c1cc(O)c(O)c(Cl)c1)C(=O)Nc1ccccc1`, 5.92.
In the case of `COc1cc(/C=C(\C#N)C(=O)Nc2ccccc2)cc(Cl)c1O` it was 5.80; in that of `COc1cc(/C=C(\C#N)C(=O)Nc2cccc(Cl)c2)cc(C)c1O`, 6.38; in that of `Cc1cccc(NC(=O)/C(C#N)=C/c2ccc(O)c(O)c2)c1`, 5.68.
To `COc1cc(/C=C(\C#N)C(=O)Nc2cccc(Cl)c2)cc(F)c1O` belongs 5.80; to `COc1cc(/C=C(\C#N)C(=O)Nc2cccc(Cl)c2)cc(S(C)(=O)=O)c1O`, 5.85.
Consider `COc1cc(/C=C(\C#N)C(=O)Nc2cccc(Cl)c2)ccc1O`, for which the pIC50 was 5.68.
The compound `Cc1cc(/C=C(\C#N)C(=O)Nc2cccc(Cl)c2)cc(C)c1O` had a pIC50 of 6.05.
In the case of `N#C/C(=C\c1cc(Br)c(O)c(Br)c1)C(=O)Nc1cccc(Cl)c1` it was 5.96.
In turn, `COc1cc(/C=C(\C#N)C(=O)Nc2cccc(Cl)c2)cc([N+](=O)[O-])c1O` had a pIC50 of 5.74.
`N#C/C(=C\c1ccc(O)c(O)c1)C(=O)Nc1cccc(Cl)c1` showed a pIC50 of 5.85.
In the case of `CCOc1cc(/C=C(\C#N)C(N)=O)cc(CSc2ccccc2)c1O` it was 5.59; in that of `N#C/C(=C\c1cc(O)c(O)c(F)c1)C(=O)Nc1cccc(Cl)c1`, 6.22; in that of `N#C/C(=C\c1cc(O)c(O)c(Cl)c1)C(=O)Nc1cccc(Cl)c1`, 6.17.

As usually defined, the pIC50 is −log10 of the IC50, conventionally taken in molar units. Read a high pIC50 as a small IC50.
